# Measured values from patent publication US4460605A, “2-[2'-Hydroxy-3'-(1,1-dimethylpropylamino)-propoxy ]-β-phenylpropiophenone, its physiologically acceptable acid addition salts, and pharmaceutical compositions” (Helopharm W. Petrik & Co., priority 1981, dated 1984).
# Counter-ions that a name gives are not always drawn. Like-named read-outs stand apart in the source and are kept apart here.
# What was measured:
# model arrhythmias [1] = test: Tests with animals having model arrhythmias (known compounds); assay type: in vivo; conditions: average (1-3 mg/kg) intravenous doses
# [2] = tested on: CHCl3-adrenalin-model arrhythmia; test: animal or person; assay type: in vivo, dog
# Method: The antiarrhythmic effect of the compound of formula I was tested in dogs according to the method of Hapke and Prigge, Arzneim.-Forsch. (Drug Res.), loc. cit. A model arrhythmia which was essentially characterized by ventricular extrasystoles at absolute arrhythmia was produced by infusion of chloroform and adrenalin (epinephrine). At the onset of these rhythm disorders the inventive compound was injected intravenously as aqueous solution of the hydrochloride.
# . […] (Drug Res.), loc. cit.
# circulation parameters = test: Circulation parameters in dogs (method of Hapke and Prigge); conditions: for Diastolic blood pressure (A. femoralis) / Heart beat rate change / Systolic blood pressure (A. femoralis) / Coronary flow volume / Left ventricular peak pressure / Maximum rate of pressure rise (dp/dt) / Peripheral blood flow volume (A. femoralis): dog
# Excerpt: For the test method see H. J. Hapke and E. Prigge, Arzneim.-Forsch.
# [3] = LD50 acute toxicity in dog; conditions: in vivo, iv; dog i.v.
# [4] = tested on: rhythm disorders produced by occlusion of a branch of the coronary vessels; test: Antiarrhythmic effect after oral administration, rhythm disorders by occlusion of a branch of the coronary vessels in dogs; assay type: in vivo, dog; conditions: 10 mg/kg intragastric
# Method: Again in dogs, the excellent antiarrhythmic effect could be observed after oral administration too. Rhythm disorders were produced by occlusion of a branch of the coronary vessels. The inventive compound was administered intragastrically in the form of the hydrochloride the next day.
# model arrhythmias [5] = conditions: cited from earlier work; for dose at which antiarrhythmic effect appeared: dogs, cats and rabbits
# heart rate disorders = conditions: human medicine; cited from earlier work
compound,measurement,setting,value
CCC(C)NCC(O)COc1ccccc1C(=O)CCc1ccccc1 (stereo not drawn) [1-methylpropylamino],antiarrhythmic effect,model arrhythmias [1],practically no antiarrhythmic effect
"CCC(C)(C)NCC(O)COc1ccccc1C(=O)CCc1ccccc1 (stereo not drawn) [diprafenone, 2-[2'-hydroxy-3'-(1,1-dimethylpropylamino)-propoxy]-β-phenylpropiophenone]",minimal effective dose,"[2]; Canis lupus familiaris, intravenous, model arrhythmias, read-out: dose showing an antiarrhythmic effect",0.05 mg/kg
same,increase of therapeutic quotient as compared to propafenone,"[2]; dog, in vivo",10-20 times
"CCC(C)(C)NCC(O)COc1ccccc1C(=O)CCc1ccccc1 (stereo not drawn) [diprafenone-HCl, 2-[2'-hydroxy-3'-(1,1-dimethylpropylamino)-propoxy]-β-phenylpropiophenone-hydrochloride]",effect on peripheral and coronary circulation,circulation parameters; comparable doses,does not have an effect on the peripheral and coronary circulation
same,Diastolic blood pressure (A. femoralis),circulation parameters; 0.5 mg/kg i.v.,-16 mm Hg
same,Heart beat rate change,circulation parameters; 0.5 mg/kg i.v.,-8 min⁻¹
same,Systolic blood pressure (A. femoralis),circulation parameters; 0.5 mg/kg i.v.,-13 mm Hg
same,Diastolic blood pressure (A. femoralis),circulation parameters; 1.0 mg/kg i.v.,-24 mm Hg
same,Heart beat rate change,circulation parameters; 1.0 mg/kg i.v.,-22 min⁻¹
same,Systolic blood pressure (A. femoralis),circulation parameters; 1.0 mg/kg i.v.,-17 mm Hg
same,Coronary flow volume,circulation parameters; 3.0 mg/kg i.v.,+56%
same,Diastolic blood pressure (A. femoralis),circulation parameters; 3.0 mg/kg i.v.,-39 mm Hg
same,Heart beat rate change,circulation parameters; 3.0 mg/kg i.v.,-24 min⁻¹
same,Left ventricular peak pressure,circulation parameters; 3.0 mg/kg i.v.,-46 mm Hg
same,Maximum rate of pressure rise (dp/dt),circulation parameters; 3.0 mg/kg i.v.,-30%
same,Systolic blood pressure (A. femoralis),circulation parameters; 3.0 mg/kg i.v.,-45 mm Hg
same,heart beat rate,"circulation parameters; doses of 0.5 mg/kg i.v., contrary to propafenone",reduction of the heart beat rate
same,time to full antiarrhythmic effect,"[2]; dogs, 0.05 mg/kg i.v.",≤ 45 s
same,antiarrhythmic effect (sinus rhythm in ECG became normal),"[2]; dogs, 0.05 mg/kg i.v., all dogs treated",fully effective
same,LD50,[3],10 mg/kg
same,extrasystoles,[4]; 30 minutes after application,no extrasystoles could be observed
same,extrasystoles,[4]; for 10 minutes after application,observed unchanged
same,ECG,[4]; for the 24 hours observed,remained normal
CCCCNCC(O)COc1ccccc1C(=O)CCc1ccccc1 (stereo not drawn) [n-butylamino],antiarrhythmic effect,model arrhythmias [1],practically no antiarrhythmic effect
CCCNCC(O)COc1ccccc1C(=O)CCc1ccccc1 (stereo not drawn) [propafenone-HCl],Coronary flow volume,circulation parameters; 1.0 mg/kg i.v.,+14%
same,Left ventricular peak pressure,circulation parameters; 1.0 mg/kg i.v.,-5 mm Hg
same,Peripheral blood flow volume (A. femoralis),circulation parameters; 1.0 mg/kg i.v.,+10%
same,Coronary flow volume,circulation parameters; 3.0 mg/kg i.v.,+30%
same,Diastolic blood pressure (A. femoralis),circulation parameters; 3.0 mg/kg i.v.,-40 mm Hg
same,Left ventricular peak pressure,circulation parameters; 3.0 mg/kg i.v.,-25 mm Hg
same,Maximum rate of pressure rise (dp/dt),circulation parameters; 3.0 mg/kg i.v.,-29%
same,Peripheral blood flow volume (A. femoralis),circulation parameters; 3.0 mg/kg i.v.,+36%
same,Systolic blood pressure (A. femoralis),circulation parameters; 3.0 mg/kg i.v.,-30 mm Hg
same,Coronary flow volume,circulation parameters; 5.0 mg/kg i.v.,+43%
same,Left ventricular peak pressure,circulation parameters; 5.0 mg/kg i.v.,-42 mm Hg
same,Maximum rate of pressure rise (dp/dt),circulation parameters; 5.0 mg/kg i.v.,-47%
same,Coronary flow volume,circulation parameters; 10.0 mg/kg i.v.,+67%
same,Diastolic blood pressure (A. femoralis),circulation parameters; 10.0 mg/kg i.v.,-60 mm Hg
same,Left ventricular peak pressure,circulation parameters; 10.0 mg/kg i.v.,-70 mm Hg
same,Maximum rate of pressure rise (dp/dt),circulation parameters; 10.0 mg/kg i.v.,-62%
same,Systolic blood pressure (A. femoralis),circulation parameters; 10.0 mg/kg i.v.,-65 mm Hg
CCCNCC(O)COc1ccccc1C(=O)CCc1ccccc1 (stereo not drawn) [propafenone],hemodynamic effect,model arrhythmias [5]; average (1-3 mg/kg) and higher (5 mg/kg) intravenous doses,"hypotensive, negative inotropic effect and dilates the coronary arteries"
same,dose at which antiarrhythmic effect appeared,model arrhythmias [5]; intravenous,1 mg/kg
same,dose at which antiarrhythmic effect appeared,model arrhythmias [5]; oral,2 to 10 mg/kg
same,heart rate,model arrhythmias [5]; doses producing an antiarrhythmic effect,not substantially affected
same,antiarrhythmic effect,model arrhythmias [5]; only one of the compounds of German Pat. No. 2 001 431,shows an antiarrhythmic effect
same,effect in therapy of heart rate disorders,heart rate disorders,"antiarrhythmic with local anaesthetic, quinidine-like and also β-receptor blocking effect"
CC(C)(C)NCC(O)COc1ccccc1C(=O)CCc1ccccc1 (stereo not drawn) [tert-butylamino],antiarrhythmic effect,model arrhythmias [1],practically no antiarrhythmic effect
